The record followed here is patent US20260355318A1, “MOLECULAR MACHINES FOR TREATMENT OF CANCER, FUNGAL INFECTIONS, OR BACTERIAL INFECTIONS” (priority 2022, published 2026).

By MIC is commonly meant the lowest concentration that inhibits growth of the organism.

Experiment [1] deals with S. aureus. Briefly: MIC, S. aureus. In kind it is cell-based, Staphylococcus aureus. The note with it: Staphylococcus aureus, read-out: MIC of MM. How it is done: (§1) The appropriate volume of an MM stock at 8 mM necessary to achieve a concentration ranging from 0.3125 to 40 μM was pipetted into a 2 mL microcentrifuge tube to which 1 mL of cell suspension prepared as previously described was added. Corresponding negative controls (DMSO only) were prepared in the same way. The mixture was gently mixed by pipetting and incubated in the dark at 30 or 37 ° C, depending on the strain, for 30 min with agitation (220 rpm). Afterward, MM- or DMSO-treated cells were dispensed in one well of a 24-well plate positioned in the center of the light beam (405 nm LED Light, Prizmatix, UHP—F-5-405) placed at the appropriate distance necessary to achieve the desired light intensity of 304 mW cm-2, 146 mW cm2 or 87 mW cm2, as measured with a handheld digital power meter console coupled to an S415C thermal power sensor head (Thorlabs, Newton, MA, USA). The temperature during irradiation was monitored using a thermocouple probe (Model SC-TT-K-30-36-PP; Omega Engineering, Inc., Stanford, CT, USA). Samples were agitated during irradiation. Dark controls were prepared as previously described except that no irradiation was provided.
(§2) For MIC determination, samples treated with a range of concentrations of the different MM, as described above and were irradiated one at a time for 5 min at 146 mW cm^−2 (43.8 J cm^−2), after which irradiated aliquots were collected and inoculated into 1 mL MHB in a 2 mL microcentrifuge tube. Samples were incubated overnight at 30 or 37 ° C, depending on the strain, without agitation. Corresponding non-irradiated samples and negative controls (without bacteria) were also included. The following day, cultures were inspected for growth and the MIC was identified. The experimental procedure used to determine the MIC of visible light-activated MMs is schematically depicted in FIG. 26.

For experiment [2], the system named is E. coli. Briefly: MIC, E. coli. In kind it is cell-based, Escherichia coli BW25113. As to conditions: Escherichia coli, read-out: MIC of MM.
The test system of experiment [3] is E. coli. Briefly: Time-kill / light-dose experiments, E. coli. Format: cell-based, Escherichia coli. As to conditions: for time to reduce cell number to limit of detection: E. coli, 2×MIC, 146 mW cm^−2 405 nm. How it is done: (§3) Serial dilutions of irradiated cell suspensions were prepared in PBS. A volume of 10 AL of the appropriate serial dilutions was spot-plated onto LB agar plates. Following overnight incubation at 30 or 37 ° C, depending on the strain, bacterial viability was assessed as colony forming units (CFU) per mL. Results were expressed as log (N/NO) whereby N is the CFU mL^−1 at each irradiation time point and NO is the initial CFU mL^−1 of the corresponding sample. Only dilutions that yielded 10-100 colonies were counted.

Experiment [4] deals with P. aeruginosa. Briefly: MIC, P. aeruginosa. In kind it is cell-based, Pseudomonas aeruginosa. As to conditions: Pseudomonas aeruginosa, read-out: MIC of MM. On the procedure:
as §1, §2

Experiment [5] deals with persister cells of E. coli. Briefly: Persister eradication, E. coli. Format: cell-based, Escherichia coli. As to conditions: 1×MIC, 405 nm. How it is done: (§4) Persister cells of E. coli were prepared by adding ampicillin (100 μg mL^−1) to exponential-phase cells (OD600 of ≈0.8) followed by continuous agitation for another 3 b, as previously described (Keren et al., 2004). In the case of S. aureus, almost all stationary-phase are considered to be persistent (Keren et al., 2004). S. aureus cells were grown at 37 ° C and 220 rpm in LB broth to an OD600 of 0.3. Cells were then diluted 1:1000 in 25 mL LB and grown for 16 h at 37 ° C and 220 rpm in 250 mL flasks. […] At specified time points (0, 1, 2, 3, 4 and 5, 10 and 15 min), 50-μL aliquots were removed, serially diluted and spot-plated onto LB agar plates to determine colony-forming units per mL (CFU mL^−1). Only dilutions that yielded 10-100 colonies were counted. Results were expressed as log (N/NO) whereby N is the CFU mL^−1 at each irradiation time point and NO is the initial CFU mL^−1 of the corresponding sample. […].

Experiment [6] relates to persister cells of S. aureus. As to the kind of experiment: Persister eradication, S. aureus. In kind it is cell-based, Staphylococcus aureus. The note with it: 1×MIC, 405 nm. How it is done:
as §4

The test system of experiment [7] is A. baumannii. Briefly: MIC, A. baumannii. As to conditions: Acinetobacter baumannii, read-out: MIC of MM. Format: cell-based, Acinetobacter baumannii. On the procedure:
as §1, §2

The test system of experiment [8] is persister cells of P. aeruginosa. As to the kind of experiment: Persister eradication, P. aeruginosa. As to conditions: 1×MIC, 405 nm. Format: cell-based, Pseudomonas aeruginosa.
Experiment [9] concerns S. aureus. Briefly: Time-kill / light-dose experiments, S. aureus. Format: cell-based, Staphylococcus aureus. The note with it: 2×MIC, 146 mW cm^−2 405 nm. How it is done: as §3
For experiment [10], the system named is A. baumannii. As to the kind of experiment: Time-kill / light-dose experiments, A. baumannii. Format: cell-based, Acinetobacter baumannii. As to conditions: 2×MIC, 146 mW cm^−2 405 nm. How it is done: as §3
Experiment [11] deals with P. aeruginosa. Briefly: Time-kill / light-dose experiments, P. aeruginosa. In kind it is cell-based, Pseudomonas aeruginosa. The note with it: 2×MIC, 146 mW cm^−2 405 nm. How it is done:
as §3

For a further experiment, the system named is C. albicans. Briefly: MIC, visible-light-activated MMs and conventional antifungals, C. albicans. The note with it: Candida albicans, read-out: MIC of antifungal agent. Format: cell-based, Candida albicans (ATCC 18804). On the procedure:
C. albicans cell suspensions were incubated with increasing concentrations of MMs and irradiated with 405-nm light at 292 mW cm^−2 for 5 min (87.6 J cm^−2). The minimum inhibitory concentration (MIC) was defined as the MM concentration resulting in no visible fungal growth after irradiation with 87.6 J cm^−2 of 405-nm light.
(§5) Cell suspensions for susceptibility testing (MMs and conventional antifungals) were prepared per the Clinical & Laboratory Standards Institute (CLSI) guidelines (CLSI, 2017; CLSI, 2008). Before testing, yeasts (C. albicans and S. cerevisiae) were sub-cultured in Sabouraud Dextrose Agar-Emmons Modification (SDAE) plates and grown for 24 h at 30 °C. Five independent colonies from 24-h-old plates were collected and diluted to ~10^4 colony forming units (CFU) per mL in sterile saline (CLSI, 2017). Molds (A. fumigatus and the dermatophytes T. rubrum and M. gypseum) were sub-cultured on SDAE medium and incubated for 7 days at 28 °C. Conidia were recovered by covering the plates with sterile distilled water and scraping the colonies. The suspensions were filtered (8-μm pore size) and diluted in saline to ~10^4 CFU mL^−1 (Santos and Hamdan, 2005).
(§6) After a 30-min incubation in the dark, cell suspensions were transferred to small, sterilized glass beakers, which were then placed in a water bath. Each sample was irradiated with 405-nm light at 292 mW cm^−2 for 5 min, corresponding to a light dose of 87.6 J cm^−2, determined using an S415C thermal power sensor (Thorlabs, Newton, MA, USA). During irradiation, the cell suspensions were agitated with a small metal stirrer. A thermocouple probe (model SC-TT-K-30-36-PP; Omega Engineering, Inc., Stanford, CT, USA) was used to monitor the temperature during irradiation. Irradiated cell suspensions were inoculated in 3-(N-morpholino) propanesulfonic acid (MOPS)-buffered Roswell Park Memorial Institute Medium (RPMI) 1640 (pH 7.0). Tubes were incubated at 30 ° C for 48 h (yeasts) and 28 ° C for 7 days (molds). The antifungal or MM concentration resulting in no visible growth was defined as the minimum inhibitory concentration (MIC) (CLSI, 2017; CLSI, 2008). Similarly prepared cell suspensions were used to determine the MIC of conventional antifungals.

In the next experiment the test system is S. cerevisiae. As to the kind of experiment: MIC, MMs and antifungals, S. cerevisiae. Format: cell-based, Saccharomyces cerevisiae (ATCC 13007). As to conditions: Saccharomyces cerevisiae, broth microdilution, read-out: MIC of antifungal agent. On the procedure: as §5, §6
For orientation: Broth dilution looks for growth in wells or tubes with falling amounts of substance.

In experiment [12] the test system is persister cells of A. baumannii. Briefly: Persister eradication, A. baumannii. Format: cell-based, Acinetobacter baumannii. As to conditions: 1×MIC, 405 nm.
For experiment [13], the system named is E. coli. Briefly: Effect of ROS scavengers on MM 1-induced killing of E. coli. In kind it is cell-based, Escherichia coli. The note with it: MM 1 2×MIC, NAC 1 mM, TU 100 mM. The text has this:
All results are shown as the mean of at least 3 biological replicas±standard error of the mean.

[14] abbreviates: E. coli BW25113, 405 nm light 43.8 J cm^−2.
[15] abbreviates: E. coli, Table 9, 405 nm light 43.8 J cm^−2.

Read-outs that look alike come from different tables or passages of the source.

In the case of `C[C@@H]1Cc2cc(NCCN(C)C)c3ccccc3c2C1=C1c2ccccc2Sc2ccccc21` (stereo in doubt) [MM 2, N^1,N^1-Dimethyl-N^2-(2-methyl-1-(9H-thioxanthen-9-ylidene)-2,3-dihydro-1H-cyclopenta[a]naphthalen-5-yl) ethane-1,2-diamine], the minimal inhibitory concentration (MIC) in the experiment on S. aureus [1] amounted to 1.25 µM; with E. coli [2] (setting [14]), 32 µM; with E. coli [2] (setting [15]), 32 µM; with P. aeruginosa [4] it was 5 µM; with A. baumannii [7], 20 µM. In addition, the “time to reduce cell number to limit of detection” value with E. coli [3] was 10 min. In addition, the “time to reduce persister cells to limit of detection” value in [5] was 5 min; in experiment [6] it was 3 min; in experiment [8], 15 min. For the same molecule, the “time to complete elimination” value in the experiment with S. aureus [9] is 4 min.
As for `Br.COc1cc2c(c3ccccc13)/C(=C1\c3ccccc3Sc3ccc(C#CCCCC[P+](c4ccccc4)(c4ccccc4)c4ccccc4)cc31)[C@H](C)C2` (stereo in doubt) [MM 4, (6-(9-(5-methoxy-2-methyl-2,3-dihydro-1H-cyclopenta[a]naphthalen-1-ylidene)-9H-thioxanthen-2-yl)hex-5-yn-1-yl)triphenylphosphonium bromide], the MIC came out at 0.078 µM with S. aureus [1]; 0.625 µM in the experiment on E. coli [2] (setting [14]); 1 µM in the experiment on E. coli [2] (setting [15]); 0.625 µM in the experiment with P. aeruginosa [4]; 2.5 µM with A. baumannii [7]. Further, the “time to reduce cell number to limit of detection” value in the experiment with E. coli [3] was found to be 4 min; in the experiment on A. baumannii [10], 3 min; in the experiment with P. aeruginosa [11], 3 min. Moreover, the “bacterial toxicity in the absence of light” value with E. coli [3] (FIG. 31, different bacterial strains, no light) is “Some toxicity of the MM itself (in the absence of light)”. For the same molecule, the “time to reduce persister cells to limit of detection” value in [5] came to 5 min; in experiment [6], 3 min. The “time to complete elimination” value with S. aureus [9] is on record as 2 min.
With `CC[C@H](C)C[C@H](C)CCCCCCCCC(=O)N[C@H]1C[C@@H](O)[C@@H](NCCN)NC(=O)[C@@H]2[C@@H](O)CCN2C(=O)[C@H]([C@H](O)CCN)NC(=O)[C@H]([C@H](O)[C@@H](O)c2ccc(O)cc2)NC(=O)[C@@H]2C[C@@H](O)CN2C(=O)[C@H]([C@@H](C)O)NC1=O` [Caspofungin (CAS), Caspofungin], the MIC turned out to be 0.25 µg/mL in the experiment with C. albicans and 0.5 µg/mL in the experiment on S. cerevisiae.
With `C[C@@H]1Cc2cc(N(C)CCN(C)C)c3ccccc3c2C1=C1c2ccccc2Sc2ccccc21` [MM 3, N^1,N^1,N^2-trimethyl-N^2-(2-methyl-1-(9H-thioxanthen-9-ylidene) ~2,3-dihydro-1H-cyclopenta[a]naphthalen-5-yl) ethane-1,2-diamine], the “time to reduce persister cells to limit of detection” value in [12] was 15 min; in [5], 10 min; in experiment [6], 10 min. Further, the MIC in the experiment on S. aureus [1] stood at 1.25 µM; in the experiment on E. coli [2] (setting [15]), 16 µM; with P. aeruginosa [4] it was 5 µM; with A. baumannii [7], 20 µM. Also, the “time to reduce cell number to limit of detection” value with A. baumannii [10] and with P. aeruginosa [11] was 10 min each time. The “time to complete elimination” value in the experiment with S. aureus [9] stood at 4 min.
Take `CC(=O)N[C@@H](CS)C(=O)O` [N-acetyl-L-cysteine]: the “protection against MM-induced killing by ROS scavenger” value in the experiment on E. coli [13] is reported as “does not protect against MM-induced killing in E. coli”.
The same measure, in the same setting: the result for `NC(N)=S` [thiourea] reads “does not protect against MM-induced killing in E. coli”.
